Patent US11634425B2, “Pharmaceutical compounds” (priority 2019, dated 2023)
Like-named read-outs stand apart in the source and are kept apart here.

Legend:
RSV A2 = experiment: RSV plaque reduction assay; format: cell-based, respiratory syncytial virus (RSV); details: human respiratory syncytial virus, HepG2, Hep-G2 cells, mean of at least two experiments
Method in brief: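 RSV A2 at 100 PFU/well was premixed with eight compound dilutions and added to confluent Hep-G2 monolayers for 2 h at 37 °C. Cells were then kept 2 days under a DMEM/2% FBS/0.8% CMC overlay containing compound. Immunostained plaques were counted relative to virus controls, and EC50 came from 4-parameter fits, averaged over at least two experiments.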

Cell cytotoxicity (CC50) = format: cell-based; details: human; mean of at least two experiments
Method in brief: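 Values are means of ≥2 independent runs, rounded to whole units, from 4-parameter variable-slope curve fits. Toxicity measured in Hep-G2 cells run alongside RSV plaque-reduction assays.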

in vitro [1] = format: in vitro ADME; details: microsomes, pH 7.4, 1 μM compound, 0.5 mg/mL protein, read-out: Liver Microsomal Stability t1/2
Method in brief: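 Pooled liver microsomes (0.5 mg/mL protein) in 0.1 M phosphate pH 7.4 with 1 μM compound and 1 mM NADPH at 37° C., sampled at 0–45 min; minus-NADPH control at 45 min. Acetonitrile quench, LC-MS/MS; t1/2 and CLint from ln peak-area ratio vs time slope.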

in vitro [2] = format: in vitro ADME; details: hepatocytes, 3 μM compound, read-out: Liver Hepatocyte Stability t1/2
Method in brief: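 Test compound at 3 μM (0.25% DMSO) incubated at 37 °C with pooled cryopreserved hepatocytes, 0.5×10^6 viable cells/mL in supplemented Williams E medium, sampled at 0-60 min. Depletion followed by LC-MS/MS; t1/2 and CLint derived from the slope of ln peak area ratio versus time.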

in vivo = format: in vivo, rat (Sprague Dawley); details: male SD rat; for Vd / clearance / Cmax / half-life / AUC(0-t): Sprague Dawley, in vivo; for Cmax / C 8 h: IV 1 mg/kg / PO 10 mg/kg study; for AUC(0-t): read-out: PO AUClast
Description: The pharmacokinetics of compounds were studied in vivo in rats at doses of 1 mg/kg (IV) and 10 mg/kg (PO).
Male rats [Sprague Dawley (SD)] surgically prepared with a jugular vein cannula were treated with experimental compounds via intravenous administration (IV; n=3; 1 mg/kg) or oral administration (PO; n=3; 10 mg/kg). Compounds were formulated as a solution in 40:60 dimethylacetamide:saline (IV administration) and a solution of 10% DMSO, 20% cremaphor in water (70%) (PO administration). […] Serial blood samples were collected via the cannula at 0.02, 0.08, 0.25, 0.5, 1, 2, 4, 6, 8 and 24 h post IV dosing of compound, and at 0.08, 0.25, 0.5, 1, 2, 4, 6, 8 and 24 h post oral dosing of compound, and plasma was prepared by centrifugation and stored immediately at −80° C. Samples were subsequently thawed, prepared for analysis by protein precipitation with acetonitrile, and analysed by tandem LCMS using electrospray ionisation using a matrix-matched calibration curve. PK parameters were calculated from the resulting data.

[3] = IV 1 mg/kg, read-out: IV t1/2 (converted)
[4] = PO 10 mg/kg, read-out: PO t1/2 (converted)

SMILES	EC50 (RSV A2) [nM]	CC50 (Cell cytotoxicity (CC50)) [nM]	half-life at 1 μM (in vitro [1]; dog) [h]	half-life at 1 μM (in vitro [1]; human) [h]	half-life at 1 μM (in vitro [1]; rat) [h]	half-life at 3 μM (in vitro [2]; dog) [h]	half-life at 3 μM (in vitro [2]; human) [h]	half-life at 3 μM (in vitro [2]; rat) [h]	Vd (in vivo; IV 1 mg/kg) [L/kg]	clearance (in vivo; IV 1 mg/kg) [mL/min/kg]	Cmax (in vivo) [ng/mL]	half-life (in vivo; [3]) [h]	AUC(0-t) (in vivo; PO 10 mg/kg) [ng·h/mL]	C 8 h (in vivo) [ng/mL]	F (in vivo; IV 1 mg/kg, PO 10 mg/kg) [%]	half-life (in vivo; [4]) [h]
O=C(N[C@H]1N=C(c2ccccc2)c2ccccc2NC1=O)c1c(-c2ccccc2F)nn2cccnc12 [Example 2, 2-(2-Fluorophenyl)-N-[(3S)-2-oxo-5-phenyl-1,3-dihydro-1,4-benzodiazepin-3-yl]pyrazolo[1,5-a]pyrimidine-3-carboxamide]	39	> 25000	7.38	3.08	> 2.33	1.12	145	3.95	1.3	5	2410	3.1	34200	2290	103	–
Cc1ccc(-c2nn3cccnc3c2C(=O)N[C@H]2N=C(c3ccccc3)c3cccc(F)c3NC2=O)cn1 [Example 50, N-[(3S)-9-fluoro-2-oxo-5-phenyl-1,3-dihydro-1,4-benzodiazepin-3-yl]-2-(6-methylpyridin-3-yl)pyrazolo[1,5-a]pyrimidine-3-carboxamide]	99	> 25000	13.3	13.4	3.88	> 3.1	> 3.1	96.7	0.94	13	2040	1.2	20000	1003	152	2.4
CCc1ccc(-c2nn3cccnc3c2C(=O)N[C@H]2N=C(c3ccccc3)c3cccc(F)c3NC2=O)cn1 [Example 55]	45	> 25000	1.87	2.93	1.01	2.43	> 3.1	1.43	1.2	14.3	1420	2	14700	753	113	2.5
